Results published in the NIST ThermoML archive (doi:10.1021/acs.jced.5b00784).

Assays:
[1] = xn = mol fraction of the nth substance listed; conditions: Liquid, Vibrating tube method, x2 = 0.377
[2] = Liquid, isochoric method

COC(F)(F)C(F)(C(F)(F)F)C(F)(F)F [methyl nonafluoroisobutyl ether] + COC(F)(F)C(F)(F)C(F)(F)C(F)(F)F
[1]
Conditions | mass density [kg/m3]
275.02 K, 1984 kPa | 1579.6
277.09 K, 3723 kPa | 1579.2
279.26 K, 5543 kPa | 1578.7
279.43 K, 273 kPa | 1564.5
279.75 K, 524 kPa | 1564.4
279.75 K, 527 kPa | 1564.4
280.37 K, 972 kPa | 1563.7
280.46 K, 1101 kPa | 1564.3
280.94 K, 1442 kPa | 1564.2
281.34 K, 7289 kPa | 1578.3
281.55 K, 1942 kPa | 1563.5
281.92 K, 2278 kPa | 1564
281.94 K, 2249 kPa | 1564
282.38 K, 2648 kPa | 1563.9
283.21 K, 3315 kPa | 1563.7
283.5 K, 9101 kPa | 1577.9
283.65 K, 3673 kPa | 1563.6
284.04 K, 3949 kPa | 1563.6
284.44 K, 4290 kPa | 1563.5
285.1 K, 4838 kPa | 1563.3
285.42 K, 5083 kPa | 1563.3
285.49 K, 10769 kPa | 1577.5
285.94 K, 5471 kPa | 1563.2
286.26 K, 5744 kPa | 1563.1
286.26 K, 5757 kPa | 1563.1
286.61 K, 5994 kPa | 1562.5
286.95 K, 6330 kPa | 1562.9
287.26 K, 6535 kPa | 1562.3
287.54 K, 6765 kPa | 1562.9
287.54 K, 6789 kPa | 1562.9
287.59 K, 12510 kPa | 1577.1
287.68 K, 6872 kPa | 1562.8
288.04 K, 7178 kPa | 1562.8
288.9 K, 7893 kPa | 1562.5
289.56 K, 14156 kPa | 1576.7
289.6 K, 8425 kPa | 1562.5
289.6 K, 8448 kPa | 1562.5
289.6 K, 8462 kPa | 1562.2
289.72 K, 8502 kPa | 1562.4
291.62 K, 15869 kPa | 1576.2
291.67 K, 10052 kPa | 1562
291.67 K, 10070 kPa | 1562
291.67 K, 10101 kPa | 1562
292.61 K, 10815 kPa | 1561.9
292.7 K, 10872 kPa | 1561.2
293.44 K, 11481 kPa | 1561.7
293.52 K, 17446 kPa | 1575.9
294.31 K, 12183 kPa | 1561.5
295.32 K, 12982 kPa | 1561.3
295.59 K, 19153 kPa | 1575.4
296.29 K, 13751 kPa | 1561.1
298.57 K, 15560 kPa | 1560.7
299.64 K, 16411 kPa | 1560.5
300.65 K, 17215 kPa | 1560.3
301.34 K, 17761 kPa | 1560.1
302.6 K, 18751 kPa | 1559.9
302.6 K, 18786 kPa | 1559.9

FC(C(F)(F)F)C(F)(F)F [1,1,1,2,3,3,3-heptafluoropropane]
[2]
Conditions | mass density [kg/m3]
268.92 K, 1786 kPa | 1509.3
271.83 K, 3840 kPa | 1508.5
274.3 K, 5598 kPa | 1508.1
277.7 K, 8059 kPa | 1507.7
279.51 K, 839 kPa | 1466.6
280.8 K, 10284 kPa | 1507.3
281.32 K, 1993 kPa | 1465.2
283.42 K, 3331 kPa | 1464.8
283.61 K, 12288 kPa | 1507
285.37 K, 4577 kPa | 1464.6
286.43 K, 1142 kPa | 1441.9
286.67 K, 1203 kPa | 1440.9
286.7 K, 14495 kPa | 1506.7
287.36 K, 5848 kPa | 1464.3
288.43 K, 2193 kPa | 1440
289.14 K, 2747 kPa | 1440.7
289.31 K, 16361 kPa | 1506.4
289.41 K, 7162 kPa | 1464.1
290.44 K, 3367 kPa | 1439.5
291.46 K, 8474 kPa | 1463
292 K, 4466 kPa | 1440.2
292.45 K, 4875 kPa | 1439.1
293.4 K, 9717 kPa | 1463.7
294.61 K, 5846 kPa | 1438.9
294.98 K, 6251 kPa | 1439.8
295.29 K, 10924 kPa | 1463.5
296.72 K, 7101 kPa | 1438
297.18 K, 12136 kPa | 1463.3
297.85 K, 7978 kPa | 1439.5
298.7 K, 8273 kPa | 1438.5
299.38 K, 13527 kPa | 1463.1
300.87 K, 9562 kPa | 1438.2
300.89 K, 9788 kPa | 1439.2
301.4 K, 14839 kPa | 1462.9
302.74 K, 10686 kPa | 1438.1
302.94 K, 15829 kPa | 1462.8
303.82 K, 11544 kPa | 1438.9
304.8 K, 11916 kPa | 1437.9
306.88 K, 13381 kPa | 1438.6
306.95 K, 13205 kPa | 1437.7
309 K, 14427 kPa | 1437.5
310.05 K, 15281 kPa | 1438.3
311.05 K, 15654 kPa | 1437.3
312.85 K, 16727 kPa | 1437.1
312.95 K, 17014 kPa | 1438
